Assay results reported in patent publication US10537521B2 (priority 2016, dated 2020).
Structures can show the parent of a compound that is named as a salt.

Assay: Example 1: multiple-dose randomized 3-way crossover PK study of two IV tramadol regimens vs 100 mg oral q6h
Settings: for theoretical accumulation factor: 1/[1-exp(−ln 2*tau/T1/2)], T1/2 approximately […]
[1] = human, plasma, iv, 50 mg, plasma concentration, Mean, 50 mg IV Dose (h 0, 2, 4, then q4h to h 44), Time […]

Procedure: A fitted curve was obtained because the second oral peak was not measured in the study. For the modeling portion of the analysis, a validated Phoenix® WinNonlin® program version 6.4 (Certara) was used for PK analysis, simulation, graphics, tables and statistical calculations. […] For purposes of nonlinear regression, the data were weighted as 1/observed. Predicted concentration-time data were calculated based on the individual fitted PK parameters.

COc1cccc([C@]2(O)CCCC[C@H]2CN(C)C)c1 (racemic) [Tramadol, (±)cis-2-[(dimethylamino)methyl]-1-(3-methoxyphenyl) cyclohexanol hydrochloride]
predicted exposure over 12 h at steady state (50 mg IV q4h, 3 x AUCtau n): 6684 ng·h/mL | RAC(trough) (50 mg IV regimen (h 0, 2, 4, then q4h to h 44), mean): 2.1937 | Css (50 mg IV regimen (h 0, 2, 4, then q4h to h 44), plasma, mean): 557 ng/mL | predicted exposure over 12 h at steady state (75 mg IV q6h, 2 x AUCtau n): 6072 ng·h/mL | RAC(trough) (75 mg IV regimen (h 0, 3, 6, then q6h to h 42), mean): 1.5026 | Css (75 mg IV regimen (h 0, 3, 6, then q6h to h 42), plasma, mean): 506 ng/mL | AUC24-48 (75 mg IV regimen (h 0, 3, 6, then q6h to h 42), plasma, mean, hydrochloride): 9402 ng·h/mL | predicted exposure over 12 h at steady state (100 mg PO q6h, 2 x AUCtau n): 6950 ng·h/mL | RAC(trough) (100 mg oral q6h to h 42, mean): 2.5580 | Css (100 mg oral q6h to h 42, plasma, mean): 579 ng/mL | theoretical accumulation factor (4-h dosing interval): 2.42 | theoretical accumulation factor (6-h dosing interval): 1.82 | AUC(0-t) (human, plasma, iv, 50 mg, AUC0-24, 50 mg IV regimen (h 0, 2, 4, then q4h to h 44), plasma, mean): 9520 ng·h/mL | AUC(0-t) (human, plasma, iv, 50 mg, AUC0-48, 50 mg IV regimen (h 0, 2, 4, then q4h to h 44), plasma, mean): 20500 ng·h/mL | AUC (human, plasma, iv, 50 mg, AUC24-48, 50 mg IV regimen (h 0, 2, 4, then q4h to h 44), plasma, mean): 11000 ng·h/mL | AUC (human, plasma, iv, 50 mg, AUCtau 1, 50 mg IV regimen (h 0, 2, 4, then q4h to h 44), first dosing interval, mean): 624 ng·h/mL | AUC (human, plasma, iv, 50 mg, AUCtau n, 50 mg IV regimen (h 0, 2, 4, then q4h to h 44), last dosing interval, mean): 2230 ng·h/mL | concentration at 2 h (human, plasma, iv, 50 mg, C2, 50 mg IV regimen (h 0, 2, 4, then q4h to h 44), plasma, mean): 203 ng/mL | concentration at 48 h (human, plasma, iv, 50 mg, C48 (T48), 50 mg IV regimen (h 0, 2, 4, then q4h to h 44), plasma, mean): 448 ng/mL | concentration at 1 h (human, plasma, iv, 50 mg, C1 h, 50 mg IV regimen (h 0, 2, 4, then q4h to h 44), plasma, mean): 243 ng/mL | Cmax (human, plasma, iv, 50 mg, Cmax(0-2), 50 mg IV regimen (h 0, 2, 4, then q4h to h 44), first dose, plasma, mean): 294 ng/mL | Cmax (human, plasma, iv, 50 mg, Cmax(2-4), 50 mg IV regimen (h 0, 2, 4, then q4h to h 44), plasma, mean): 479 ng/mL | Cmax (human, plasma, iv, 50 mg, Cmax(44-48), 50 mg IV regimen (h 0, 2, 4, then q4h to h 44), steady-state, plasma, mean): 711 ng/mL | Cmax (human, plasma, iv, 50 mg, Cmax, 50 mg IV regimen (h 0, 2, 4, then q4h to h 44), plasma, mean): 736 ng/mL | Tmax (human, plasma, iv, 50 mg, Tmax(0-2), 50 mg IV regimen (h 0, 2, 4, then q4h to h 44), plasma, mean): 0.54 h | Tmax (human, plasma, iv, 50 mg, Tmax(2-4), 50 mg IV regimen (h 0, 2, 4, then q4h to h 44), plasma, mean): 2.36 h | Tmax (human, plasma, iv, 50 mg, Tmax(44-48), 50 mg IV regimen (h 0, 2, 4, then q4h to h 44), plasma, mean): 44.3 h | Tmax (human, plasma, iv, 50 mg, Tmax, 50 mg IV regimen (h 0, 2, 4, then q4h to h 44), plasma, mean): 30 h | concentration at 0 h (human, plasma, iv, 50 mg, plasma concentration, Mean, 50 mg IV Dose (h 0, 2, 4, then q4h to h 44), Time 0.00 hr): 0.726 ng/mL | concentration at 0.25 h (human, plasma, iv, 50 mg, plasma concentration, Mean, 50 mg IV Dose (h 0, 2, 4, then q4h to h 44), Time 0.250 hr): 253 ng/mL | concentration at 0.5 h (human, plasma, iv, 50 mg, plasma concentration, Mean, 50 mg IV Dose (h 0, 2, 4, then q4h to h 44), Time 0.500 hr): 261 ng/mL | concentration at 0.75 h (human, plasma, iv, 50 mg, plasma concentration, Mean, 50 mg IV Dose (h 0, 2, 4, then q4h to h 44), Time 0.750 hr): 243 ng/mL | concentration at 1 h (human, plasma, iv, 50 mg, plasma concentration, Mean, 50 mg IV Dose (h 0, 2, 4, then q4h to h 44), Time 1.00 hr): 231 ng/mL | concentration at 2 h (human, plasma, iv, 50 mg, plasma concentration, Mean, 50 mg IV Dose (h 0, 2, 4, then q4h to h 44), Time 2.00 hr): 188 ng/mL | concentration at 2.5 h (human, plasma, iv, 50 mg, plasma concentration, Mean, 50 mg IV Dose (h 0, 2, 4, then q4h to h 44), Time 2.50 hr): 442 ng/mL | concentration at 4 h (human, plasma, iv, 50 mg, plasma concentration, Mean, 50 mg IV Dose (h 0, 2, 4, then q4h to h 44), Time 4.00 hr): 335 ng/mL | concentration at 4.25 h (human, plasma, iv, 50 mg, plasma concentration, Mean, 50 mg IV Dose (h 0, 2, 4, then q4h to h 44), Time 4.25 hr): 662 ng/mL | concentration at 4.5 h (human, plasma, iv, 50 mg, plasma concentration, Mean, 50 mg IV Dose (h 0, 2, 4, then q4h to h 44), Time 4.50 hr): 592 ng/mL | concentration at 5 h (human, plasma, iv, 50 mg, plasma concentration, Mean, 50 mg IV Dose (h 0, 2, 4, then q4h to h 44), Time 5.00 hr): 527 ng/mL | concentration at 6 h (human, plasma, iv, 50 mg, plasma concentration, Mean, 50 mg IV Dose (h 0, 2, 4, then q4h to h 44), Time 6.00 hr): 433 ng/mL | concentration at 8 h (human, plasma, iv, 50 mg, plasma concentration, Mean, 50 mg IV Dose (h 0, 2, 4, then q4h to h 44), Time 8.00 hr): 346 ng/mL | concentration at 12 h (human, plasma, iv, 50 mg, plasma concentration, Mean, 50 mg IV Dose (h 0, 2, 4, then q4h to h 44), Time 12.0 hr): 353 ng/mL | concentration at 20 h (human, plasma, iv, 50 mg, plasma concentration, Mean, 50 mg IV Dose (h 0, 2, 4, then q4h to h 44), Time 20.0 hr): 419 ng/mL | concentration at 32 h (human, plasma, iv, 50 mg, plasma concentration, Mean, 50 mg IV Dose (h 0, 2, 4, then q4h to h 44), Time 32.0 hr): 422 ng/mL | concentration at 40 h (human, plasma, iv, 50 mg, plasma concentration, Mean, 50 mg IV Dose (h 0, 2, 4, then q4h to h 44), Time 40.0 hr): 424 ng/mL | concentration at 44 h (human, plasma, iv, 50 mg, plasma concentration, Mean, 50 mg IV Dose (h 0, 2, 4, then q4h to h 44), Time 44.0 hr): 424 ng/mL | concentration at 44.3 h (human, plasma, iv, 50 mg, plasma concentration, Mean, 50 mg IV Dose (h 0, 2, 4, then q4h to h 44), Time 44.3 hr): 697 ng/mL | concentration at 44.5 h (human, plasma, iv, 50 mg, plasma concentration, Mean, 50 mg IV Dose (h 0, 2, 4, then q4h to h 44), Time 44.5 hr): 655 ng/mL | concentration at 44.8 h (human, plasma, iv, 50 mg, plasma concentration, Mean, 50 mg IV Dose (h 0, 2, 4, then q4h to h 44), Time 44.8 hr): 645 ng/mL | concentration at 45 h (human, plasma, iv, 50 mg, plasma concentration, Mean, 50 mg IV Dose (h 0, 2, 4, then q4h to h 44), Time 45.0 hr): 610 ng/mL | concentration at 45.5 h (human, plasma, iv, 50 mg, plasma concentration, Mean, 50 mg IV Dose (h 0, 2, 4, then q4h to h 44), Time 45.5 hr): 553 ng/mL | concentration at 46 h (human, plasma, iv, 50 mg, plasma concentration, Mean, 50 mg IV Dose (h 0, 2, 4, then q4h to h 44), Time 46.0 hr): 528 ng/mL | concentration at 47 h (human, plasma, iv, 50 mg, plasma concentration, Mean, 50 mg IV Dose (h 0, 2, 4, then q4h to h 44), Time 47.0 hr): 490 ng/mL | concentration at 16 h [1]: 388 ng/mL | concentration at 24 h [1]: 413 ng/mL | concentration at 48 h [1]: 434 ng/mL | AUC(0-t) (human, plasma, iv, 75 mg, AUC0-24, 75 mg IV regimen (h 0, 3, 6, then q6h to h 42), plasma, mean): 9930 ng·h/mL | AUC(0-t) (human, plasma, iv, 75 mg, AUC0-48, 75 mg IV regimen (h 0, 3, 6, then q6h to h 42), plasma, mean): 19300 ng·h/mL | AUC (human, plasma, iv, 75 mg, AUC24-48, 75 mg IV regimen (h 0, 3, 6, then q6h to h 42), plasma, mean): 9930 ng·h/mL | AUC (human, plasma, iv, 75 mg, AUCtau 1, 75 mg IV regimen (h 0, 3, 6, then q6h to h 42), first dosing interval, mean): 1250 ng·h/mL | AUC (human, plasma, iv, 75 mg, AUCtau n, 75 mg IV regimen (h 0, 3, 6, then q6h to h 42), last dosing interval, mean): 3040 ng·h/mL | concentration at 3 h (human, plasma, iv, 75 mg, C3, 75 mg IV regimen (h 0, 3, 6, then q6h to h 42), plasma, mean): 237 ng/mL | concentration at 48 h (human, plasma, iv, 75 mg, C48 (T48), 75 mg IV regimen (h 0, 3, 6, then q6h to h 42), plasma, mean): 354 ng/mL | concentration at 1 h (human, plasma, iv, 75 mg, C1 h, 75 mg IV regimen (h 0, 3, 6, then q6h to h 42), plasma, mean): 361 ng/mL | Cmax (human, plasma, iv, 75 mg, Cmax(0-3), 75 mg IV regimen (h 0, 3, 6, then q6h to h 42), first dose, plasma, mean): 484 ng/mL | Cmax (human, plasma, iv, 75 mg, Cmax(3-6), 75 mg IV regimen (h 0, 3, 6, then q6h to h 42), plasma, mean): 756 ng/mL
